For 21 compounds, inhibition and inhibitory rate results are on record in patent publication US10696651B2, “Heterocyclic compound” (Takeda Pharmaceutical Company Limited, priority 2016, dated 2020).

The structures appear in SMILES notation.

Experiment [1] addresses T1, human GCN2 full-length protein (Homo sapiens, UniProt Q9P2K8).
T1 construct: purchased Carna Biosciences, Inc
Nature of the experiment: GCN2 enzyme inhibition assay (LanthaScreen TR-FRET). The experiment is classed as biochemical. As to conditions: GCN2 enzyme inhibitory activity at compound concentration of 3 μM, Table 3-2; for inhibition at 3 µM: read-out: inhibitory rate; for inhibitory rate: 3 µM. In outline:
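Full-length human GCN2 was preincubated with compound for 1 hr at room temperature, then reacted for 1 hr with substrate and ATP added from a 570 μM ATP / 390 nM substrate solution (stock concentrations). Phosphorylation was detected by TR-FRET with a terbium-labelled anti-eIF2alpha antibody after 1 hr, with enzyme-free wells as control.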
On the technique in general: In TR-FRET formats the signal depends on donor and acceptor labels being close together.

Experiment [2] relates to osteosarcoma cell line U-2-OS. The experiment in a line: In vitro cell proliferation inhibition assay (CellTiter-Glo, low amino acid media). The experiment is classed as cell-based. The conditions noted are these: McCoy's 5A low amino acid media, Table 4-2; for inhibition at 0.1 µM: Homo sapiens, U2OS, 72 h, cell proliferation inhibitory rate; for inhibitory rate: 72 hr. The method, then: A cell suspension (40 μL) (1000 cells/well) of osteosarcoma cell line U-2-OS obtained from ATCC (American Type Culture Collection) was seeded on a 384 plate using McCoy's 5A low amino acid media (amino acid content 25%). The seeded cells were incubated (37° C., 5% CO2) overnight to 24 hr at the longest. Each example compound was dissolved (10 mM) in DMSO, delivered to wells by using TECAN HP D300 (TECAN), and the plate was incubated for 72 hr (37° C., 5% CO2). A well without addition of compound was treated similarly as a control group. Celltiter-Glo (registered trade mark) Luminescent Cell Viability Assay reagent (Promega KK) equilibrated at room temperature was added (40 μL/well) to cells in each well before compound treatment (untreated group) and 72 hours after compound treatment. After incubation for 10 min, cell proliferation inhibitory rate was measured by the amount of ATP which is a cell viability marker. Luminescence of cells showing ATP amount was measured using ARVO MX (PerkinElmer). Based on the luminescence values of the untreatment group, the control group without addition of Example compound solution, and the treatment group with addition of Example compound, the cell proliferation inhibitory rate (%) of the test compound at a compound concentration of 100 nM was calculated by the following formula and the results thereof are shown in Tables 4-1, 4-2. Inhibitory rate (%)=(1−(luminescence value of treatment group−luminescence value of untreatment group)÷(luminescence value of control group−luminescence value of untreatment group))×100

T1 sequence (Q9P2K8 whole entry): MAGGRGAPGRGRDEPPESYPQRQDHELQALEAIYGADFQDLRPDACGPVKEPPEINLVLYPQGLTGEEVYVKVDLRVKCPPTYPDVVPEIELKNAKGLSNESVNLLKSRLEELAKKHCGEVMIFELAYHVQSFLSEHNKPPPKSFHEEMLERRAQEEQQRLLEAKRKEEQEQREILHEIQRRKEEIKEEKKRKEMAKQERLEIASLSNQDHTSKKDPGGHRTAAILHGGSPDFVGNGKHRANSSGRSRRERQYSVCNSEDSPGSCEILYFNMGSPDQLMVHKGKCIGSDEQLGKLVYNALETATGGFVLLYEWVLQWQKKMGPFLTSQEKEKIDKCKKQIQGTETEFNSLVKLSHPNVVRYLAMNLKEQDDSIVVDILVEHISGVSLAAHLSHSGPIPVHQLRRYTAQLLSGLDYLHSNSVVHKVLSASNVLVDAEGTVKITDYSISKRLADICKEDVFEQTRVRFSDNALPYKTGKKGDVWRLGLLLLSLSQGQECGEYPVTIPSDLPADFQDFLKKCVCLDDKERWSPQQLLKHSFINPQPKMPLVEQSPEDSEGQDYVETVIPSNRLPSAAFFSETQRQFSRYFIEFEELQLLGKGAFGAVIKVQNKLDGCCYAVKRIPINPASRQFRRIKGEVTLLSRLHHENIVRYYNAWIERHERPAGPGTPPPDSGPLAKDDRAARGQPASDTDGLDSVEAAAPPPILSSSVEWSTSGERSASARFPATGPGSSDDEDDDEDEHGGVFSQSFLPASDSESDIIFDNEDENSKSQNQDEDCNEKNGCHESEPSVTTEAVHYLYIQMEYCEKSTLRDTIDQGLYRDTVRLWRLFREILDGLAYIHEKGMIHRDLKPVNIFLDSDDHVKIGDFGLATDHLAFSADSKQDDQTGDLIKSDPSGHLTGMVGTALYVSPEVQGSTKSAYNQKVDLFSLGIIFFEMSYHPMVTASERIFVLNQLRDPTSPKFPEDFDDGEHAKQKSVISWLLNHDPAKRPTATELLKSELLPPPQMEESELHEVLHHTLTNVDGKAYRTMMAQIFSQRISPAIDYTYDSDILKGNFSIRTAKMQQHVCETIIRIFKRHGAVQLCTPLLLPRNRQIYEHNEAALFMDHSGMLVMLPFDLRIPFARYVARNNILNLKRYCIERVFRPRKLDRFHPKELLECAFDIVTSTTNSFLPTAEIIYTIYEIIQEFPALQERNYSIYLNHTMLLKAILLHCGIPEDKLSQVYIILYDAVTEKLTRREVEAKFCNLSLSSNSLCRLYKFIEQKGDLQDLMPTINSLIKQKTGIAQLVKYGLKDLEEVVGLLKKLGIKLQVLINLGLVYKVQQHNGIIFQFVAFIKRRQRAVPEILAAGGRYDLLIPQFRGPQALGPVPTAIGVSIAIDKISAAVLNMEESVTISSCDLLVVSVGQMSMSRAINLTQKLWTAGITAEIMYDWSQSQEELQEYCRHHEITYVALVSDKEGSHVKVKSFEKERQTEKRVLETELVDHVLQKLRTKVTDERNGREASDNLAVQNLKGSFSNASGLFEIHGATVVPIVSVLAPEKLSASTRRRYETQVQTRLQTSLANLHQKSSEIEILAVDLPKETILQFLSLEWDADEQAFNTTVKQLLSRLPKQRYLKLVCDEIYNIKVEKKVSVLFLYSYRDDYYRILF

Consider `Nc1ncc(C#Cc2c(F)ccc(NS(=O)(=O)c3cc(Cl)cn4c(Cl)cnc34)c2F)cn1` [Example 165, N-(3-((2-aminopyrimidin-5-yl)ethynyl)-2,4-difluorophenyl)-3,6-dichloroimidazo[1,2-a]pyridine-8-sulfonamide], for which, in experiment [1], the inhibition at 3 µM came out at 96%. Besides, the inhibition at 0.1 µM in experiment [2] was determined as 27%.

In the case of `COc1c(CO)cc(Cl)cc1S(=O)(=O)Nc1ccc(F)c(C#Cc2cnc(NC3CC3)nn2)c1F` [Example 168, 5-chloro-N-(3-((3-(cyclopropylamino)-1,2,4-triazin-6-yl)ethynyl)-2,4-difluorophenyl)-3-(hydroxymethyl)-2-methoxybenzenesulfonamide], the inhibition at 3 µM in experiment [1] came out at 99%. The inhibition at 0.1 µM in experiment [2] was found to be 57%.

On to `CNc1ncc(Cl)cc1S(=O)(=O)Nc1ccc(F)c(C#Cc2cnc(N)nc2)c1F` [Example 171, N-(3-((2-aminopyrimidin-5-yl)ethynyl)-2,4-difluorophenyl)-5-chloro-2-(methylamino)pyridine-3-sulfonamide], for which the inhibition at 3 µM in experiment [1] amounted to 100%. Also, in experiment [2], the inhibition at 0.1 µM was found to be 82%.

Take `Nc1ncc(C#Cc2c(F)ccc(NS(=O)(=O)c3cc(Cl)cc4ccoc34)c2F)cn1` [Example 173, N-(3-((2-aminopyrimidin-5-yl)ethynyl)-2,4-difluorophenyl)-5-chloro-1-benzofuran-7-sulfonamide]: the inhibition at 3 µM in experiment [1] stood at 99%. Moreover, the inhibition at 0.1 µM in experiment [2] amounted to 76%.

Consider `COc1ncc(Cl)cc1S(=O)(=O)Nc1ccc(F)c(C#Cc2cnc(N[C@H]3CC[C@H](O)CC3)nc2)c1F` [Example 174, 5-chloro-N-(2,4-difluoro-3-((2-((trans-4-hydroxycyclohexyl)amino)pyrimidin-5-yl)ethynyl)phenyl)-2-methoxypyridine-3-sulfonamide], for which the inhibition at 3 µM in experiment [1] came to 99%. The inhibition at 0.1 µM in experiment [2] was determined as 83%.

`COc1ncc(Cl)cc1S(=O)(=O)Nc1ccc(F)c(C#Cc2cnc(N[C@H](C)CO)nc2)c1F` [Example 175, 5-chloro-N-(2,4-difluoro-3-((2-(((2R)-1-hydroxypropan-2-yl)amino)pyrimidin-5-yl)ethynyl)phenyl)-2-methoxypyridine-3-sulfonamide]: in experiment [1], the inhibition at 3 µM came to 99%. Moreover, the inhibition at 0.1 µM in experiment [2] amounted to 75%.

As for `O=S(=O)(Nc1ccc(F)c(C#Cc2cnc(N[C@H]3CC[C@H](O)CC3)nc2)c1F)c1cc(Cl)cc(CO)c1Cl` [Example 176, 2,5-dichloro-N-(2,4-difluoro-3-((2-((trans-4-hydroxycyclohexyl)amino)pyrimidin-5-yl)ethynyl)phenyl)-3-(hydroxymethyl)benzenesulfonamide], in experiment [1], the inhibition at 3 µM stood at 100%. For the same compound, the inhibition at 0.1 µM in experiment [2] worked out at 77%.

As to `O=S(=O)(Nc1ccc(F)c(C#Cc2cnc(N[C@H]3CC[C@H](O)CC3)nn2)c1F)c1cc(Cl)cc(CO)c1Cl` [Example 177, 2,5-dichloro-N-(2,4-difluoro-3-((3-((trans-4-hydroxycyclohexyl)amino)-1,2,4-triazin-6-yl)ethynyl)phenyl)-3-(hydroxymethyl)benzenesulfonamide], in experiment [1], the inhibition at 3 µM is 100%. In experiment [2], the inhibition at 0.1 µM was determined as 72%.

Turning to `C[C@H](CO)Nc1ncc(C#Cc2c(F)ccc(NS(=O)(=O)c3cc(Cl)cc(CO)c3Cl)c2F)nn1` [Example 178, 2,5-dichloro-N-(2,4-difluoro-3-((3-(((2R)-1-hydroxypropan-2-yl)amino)-1,2,4-triazin-6-yl)ethynyl)phenyl)-3-(hydroxymethyl)benzenesulfonamide], the inhibition at 3 µM in experiment [1] was 100%. Besides, the inhibition at 0.1 µM in experiment [2] amounted to 74%.

With `O=S(=O)(Nc1ccc(F)c(C#Cc2cnc(NC3COC3)nn2)c1F)c1cc(Cl)cc(CO)c1Cl` [Example 179, 2,5-dichloro-N-(2,4-difluoro-3-((3-(oxetan-3-ylamino)-1,2,4-triazin-6-yl)ethynyl)phenyl)-3-(hydroxymethyl)benzenesulfonamide], the inhibition at 3 µM in experiment [1] came out at 102%. Also, in experiment [2], the inhibition at 0.1 µM was found to be 75%.

For the compound `C[C@H](CO)Nc1ncc(C#Cc2c(F)ccc(NS(=O)(=O)c3cc(Cl)cc(CO)c3Cl)c2F)cn1` [Example 180, 2,5-dichloro-N-(2,4-difluoro-3-((2-(((2R)-1-hydroxypropan-2-yl)amino)pyrimidin-5-yl)ethynyl)phenyl)-3-(hydroxymethyl)benzenesulfonamide], the inhibition at 3 µM in experiment [1] was 103%. Besides, the inhibition at 0.1 µM in experiment [2] was 76%.

In the case of `O=S(=O)(Nc1ccc(F)c(C#Cc2cnc(NC3COC3)nc2)c1F)c1cc(Cl)cc(CO)c1Cl` [Example 181, 2,5-dichloro-N-(2,4-difluoro-3-((2-(oxetan-3-ylamino)pyrimidin-5-yl)ethynyl)phenyl)-3-(hydroxymethyl)benzenesulfonamide], the inhibition at 3 µM in experiment [1] stood at 102%. In addition, in experiment [2], the inhibition at 0.1 µM turned out to be 80%.

Turning to `CNc1ncc(Cl)cc1S(=O)(=O)Nc1ccc(F)c(C#Cc2cnc(N[C@H]3CC[C@H](O)CC3)nc2)c1F` [Example 182, 5-chloro-N-(2,4-difluoro-3-((2-((trans-4-hydroxycyclohexyl)amino)pyrimidin-5-yl)ethynyl)phenyl)-2-(methylamino)pyridine-3-sulfonamide], in experiment [1], the inhibition at 3 µM worked out at 102%. Also, the inhibition at 0.1 µM in experiment [2] was found to be 71%.

Turning to `CNc1ncc(Cl)cc1S(=O)(=O)Nc1ccc(F)c(C#Cc2cnc(N[C@H](C)CO)nc2)c1F` [Example 183, 5-chloro-N-(2,4-difluoro-3-((2-(((2R)-1-hydroxypropan-2-yl)amino)pyrimidin-5-yl)ethynyl)phenyl)-2-(methylamino)pyridine-3-sulfonamide], in experiment [1], the inhibition at 3 µM was 103%. For the same compound, the inhibition at 0.1 µM in experiment [2] worked out at 77%.

In the case of `C[C@H](CO)Nc1ncc(C#Cc2c(F)ccc(NS(=O)(=O)c3cc(Cl)cc4c3OCC4O)c2F)cn1` (stereo partly drawn) [Example 184, 5-chloro-N-(2,4-difluoro-3-((2-(((2R)-1-hydroxypropan-2-yl)amino)pyrimidin-5-yl)ethynyl)phenyl)-3-hydroxy-2,3-dihydro-1-benzofuran-7-sulfonamide], in experiment [1], the inhibition at 3 µM came out at 99%. The compound also had an inhibitory rate in experiment [2] of 59%.

With `O=S(=O)(Nc1ccc(F)c(C#Cc2cnc(N[C@H]3CC[C@H](O)CC3)nc2)c1F)c1cc(Cl)cc2c1OCC2O` (stereo partly drawn) [Example 185, 5-chloro-N-(2,4-difluoro-3-((2-((trans-4-hydroxycyclohexyl)amino)pyrimidin-5-yl)ethynyl)phenyl)-3-hydroxy-2,3-dihydro-1-benzofuran-7-sulfonamide], the inhibition at 3 µM in experiment [1] was determined as 100%. Also, the inhibition at 0.1 µM in experiment [2] is 56%.

Turning to `C[C@H](CO)Nc1ncc(C#Cc2c(F)ccc(NS(=O)(=O)c3cc(Cl)cc4c3OCC4O)c2F)cn1` (stereo partly drawn) [Example 186, 5-chloro-N-(2,4-difluoro-3-((2-(((2R)-1-hydroxypropan-2-yl)amino)pyrimidin-5-yl)ethynyl)phenyl)-3-hydroxy-2,3-dihydro-1-benzofuran-7-sulfonamide], the inhibitory rate in experiment [1] was 100%; in experiment [2] it was 43%.

Turning to `Cc1ncc(Cl)cc1S(=O)(=O)Nc1ccc(F)c(C#Cc2cnc(N[C@H]3CC[C@H](O)CC3)nc2)c1F` [Example 188, 5-chloro-N-(2,4-difluoro-3-((2-((trans-4-hydroxycyclohexyl)amino)pyrimidin-5-yl)ethynyl)phenyl)-2-methylpyridine-3-sulfonamide], in experiment [1], the inhibition at 3 µM was determined as 100%. Moreover, the inhibition at 0.1 µM in experiment [2] came to 77%.

On to `Cc1ncc(Cl)cc1S(=O)(=O)Nc1ccc(F)c(C#Cc2cnc(N[C@H](C)CO)nc2)c1F` [Example 189, 5-chloro-N-(2,4-difluoro-3-((2-(((2R)-1-hydroxypropan-2-yl)amino)pyrimidin-5-yl)ethynyl)phenyl)-2-methylpyridine-3-sulfonamide], for which the inhibition at 3 µM in experiment [1] is 99%. Besides, the inhibition at 0.1 µM in experiment [2] came to 79%.

`O=S(=O)(Nc1ccc(F)c(C#Cc2cnc(N[C@H]3CC[C@H](O)CC3)nc2)c1F)c1cc(Cl)cc2c1OCC2O` (stereo partly drawn) [Example 190, 5-chloro-N-(2,4-difluoro-3-((2-((trans-4-hydroxycyclohexyl)amino)pyrimidin-5-yl)ethynyl)phenyl)-3-hydroxy-2,3-dihydro-1-benzofuran-7-sulfonamide]: the inhibitory rate is 99% in experiment [1] and 65% in experiment [2].

For the compound `O=S(=O)(Nc1ccc(F)c(C#Cc2cnc(N[C@H]3CC[C@H](O)CC3)nc2)c1F)c1cc(Cl)cc2c1OCC2O` (stereo partly drawn) [Example 191, 5-chloro-N-(2,4-difluoro-3-((2-((trans-4-hydroxycyclohexyl)amino)pyrimidin-5-yl)ethynyl)phenyl)-3-hydroxy-2,3-dihydro-1-benzofuran-7-sulfonamide], the inhibitory rate in experiment [1] amounted to 99%; in experiment [2], 74%.
